Results from US20250332178A1, “METHODS OF TREATING MYCOBACTERIAL INFECTIONS USING TETRACYCLINE COMPOUNDS” (priority 2018, published 2025).
In brackets after ≈: the same amount, converted by molar mass.

tested on: H37Rv strain of Mycobacterium tuberculosis; experiment: MIC against H37Rv strain; type: cell-based; details: H37Rv
Description: The purpose of this study was to test activity of selected tetracycline compounds against the H37Rv strain of Mycobacterium tuberculosis. Minimum inhibitory concentrations (MIC) of different tetracycline compounds against H37Rv strain were determined and are shown in Table 8.

Structure (SMILES)	MIC [µg/mL]
CC(C)CNCc1cc(N(C)C)c2c(c1O)C(=O)C1=C(O)[C@]3(O)C(=O)C(C(N)=O)=C(O)[C@@H](N(C)C)[C@@H]3C[C@@H]1C2 [Compound 14]	16 (≈ 29.5 µM)

same assay, conditions: Mycobacterium tuberculosis, H37RV

Structure (SMILES)	MIC [µg/mL]
CN(C)c1cc(CNC(=O)Oc2ccccc2)c(O)c2c1C[C@H]1C[C@H]3[C@H](N(C)C)C(O)=C(C(N)=O)C(=O)[C@@]3(O)C(O)=C1C2=O [Compound 10]	> 32
Cc1ccc(OC(=O)NCc2cc(N(C)C)c3c(c2O)C(=O)C2=C(O)[C@]4(O)C(=O)C(C(N)=O)=C(O)[C@@H](N(C)C)[C@@H]4C[C@@H]2C3)cc1 [Compound 20]	> 32
CC(CF)NCc1cc(N(C)C)c2c(c1O)C(=O)C1=C(O)[C@]3(O)C(=O)C(C(N)=O)=C(O)C(N(C)C)[C@@H]3C[C@@H]1C2 (some centres unmarked) [Compound 42]	32 (≈ 58.5 µM)
CN(C)c1cc(CNC(=O)Oc2ccc(F)cc2)c(O)c2c1C[C@H]1C[C@H]3[C@H](N(C)C)C(O)=C(C(N)=O)C(=O)[C@@]3(O)C(O)=C1C2=O [Compound 23]	32 (≈ 51.2 µM)
CN(C)c1cc(CNC(=O)Oc2ccc(Br)cc2)c(O)c2c1C[C@H]1C[C@H]3[C@H](N(C)C)C(O)=C(C(N)=O)C(=O)[C@@]3(O)C(O)=C1C2=O [Compound 21]	16 (≈ 23.3 µM)

same assay, conditions: Mycobacterium tuberculosis, H37RV; read-out: MIC

Structure (SMILES)	MIC [µg/mL]
CCCCOC(=O)NCc1cc(N(C)C)c2c(c1O)C(=O)C1=C(O)[C@]3(O)C(=O)C(C(N)=O)=C(O)[C@H](N(C)C)[C@@H]3C[C@@H]1C2 [Compound 12]	> 32
CCOC(=O)c1csc(NCc2cc(N(C)C)c3c(c2O)C(=O)C2=C(O)[C@]4(O)C(=O)C(C(N)=O)=C(O)C(N(C)C)[C@@H]4C[C@@H]2C3)n1 (some centres unmarked) [Compound 63]	> 32
CN(C)c1cc(CNCC2CC2)c(O)c2c1C[C@H]1C[C@H]3[C@H](N(C)C)C(O)=C(C(N)=O)C(=O)[C@@]3(O)C(O)=C1C2=O [Compound 65]	16 (≈ 29.6 µM)
CN(C)c1cc(CN2CCCCC2)c(O)c2c1C[C@H]1C[C@H]3[C@H](N(C)C)C(O)=C(C(N)=O)C(=O)[C@@]3(O)C(O)=C1C2=O [Compound 56]	16 (≈ 28.8 µM)
CN(C)Cc1cc(N(C)C)c2c(c1O)C(=O)C1=C(O)[C@]3(O)C(=O)C(C(N)=O)=C(O)[C@@H](N(C)C)[C@@H]3C[C@@H]1C2 [Compound 40]	32 (≈ 62.2 µM)
CN(C)c1cc(CNCC2CCNCC2)c(O)c2c1C[C@H]1C[C@H]3[C@@H](N(C)C)C(O)=C(C(N)=O)C(=O)[C@@]3(O)C(O)=C1C2=O [Compound 49]	> 32
CN(C)c1cc(CNCc2ccc(C#N)cc2)c(O)c2c1C[C@H]1C[C@H]3C(N(C)C)C(O)=C(C(N)=O)C(=O)[C@@]3(O)C(O)=C1C2=O (some centres unmarked) [Compound 78]	32 (≈ 53.2 µM)
C=CCCOC(=O)NCc1cc(N(C)C)c2c(c1O)C(=O)C1=C(O)[C@]3(O)C(=O)C(C(N)=O)=C(O)[C@@H](N(C)C)[C@@H]3C[C@@H]1C2 [Compound 9]	> 32
COCCOC(=O)NCc1cc(N(C)C)c2c(c1O)C(=O)C1=C(O)[C@]3(O)C(=O)C(C(N)=O)=C(O)[C@@H](N(C)C)[C@@H]3C[C@@H]1C2 [Compound 19]	> 32
CC(C)CNCc1cc(N(C)C)c2c(c1O)C(=O)C1=C(O)[C@]3(O)C(=O)C(C(N)=O)=C(O)[C@H](N(C)C)[C@@H]3C[C@@H]1C2 [Compound 70]	16 (≈ 29.5 µM)
C[C@H]1c2ccc(CN3CCCCC3)c(O)c2C(=O)C2=C(O)[C@]3(O)C(=O)C(C(N)=O)=C(O)[C@@H](N(C)C)[C@@H]3[C@@H](O)[C@@H]21 [Compound 72]	32 (≈ 59.1 µM)
CN(C)c1cc(CNC(=O)[C@@H]2CCCN2C)c(O)c2c1C[C@H]1C[C@H]3[C@@H](N(C)C)C(O)=C(C(N)=O)C(=O)[C@@]3(O)C(O)=C1C2=O [Compound 71]	16 (≈ 26.8 µM)
CN(C)c1cc(CN2CCOCC2)c(O)c2c1C[C@H]1C[C@H]3[C@H](N(C)C)C(O)=C(C(N)=O)C(=O)[C@@]3(O)C(O)=C1C2=O [Compound 80]	16 (≈ 28.7 µM)
CN(C)CC(=O)NCc1cc(N(C)C)c2c(c1O)C(=O)C1=C(O)[C@]3(O)C(=O)C(C(N)=O)=C(O)C(N(C)C)[C@@H]3C[C@@H]1C2 (some centres unmarked) [Compound 60]	16 (≈ 28 µM)
CN(C)c1cc(CNCc2cc[n+]([O-])cc2)c(O)c2c1C[C@H]1C[C@H]3[C@H](N(C)C)C(O)=C(C(N)=O)C(=O)[C@@]3(O)C(O)=C1C2=O [Compound 54]	32 (≈ 53.9 µM)
CN(C)c1cc(CNc2nc(C(F)(F)F)cs2)c(O)c2c1C[C@H]1C[C@H]3C(N(C)C)C(O)=C(C(N)=O)C(=O)[C@@]3(O)C(O)=C1C2=O (some centres unmarked) [Compound 76]	> 32
CN(C)c1cc(CNCC2CCCCC2)c(O)c2c1C[C@H]1C[C@H]3[C@H](N(C)C)C(O)=C(C(N)=O)C(=O)[C@@]3(O)C(O)=C1C2=O [Compound 57]	32 (≈ 54.9 µM)
CN(C)c1cc(CNCC(C)(C)C)c(O)c2c1C[C@H]1C[C@H]3[C@H](N(C)C)C(O)=C(C(N)=O)C(=O)[C@@]3(O)C(O)=C1C2=O [Compound 17]	32 (≈ 57.5 µM)
CN(C)c1cc(CNc2ccccc2)c(O)c2c1C[C@H]1C[C@H]3[C@H](N(C)C)C(O)=C(C(N)=O)C(=O)[C@@]3(O)C(O)=C1C2=O [Compound 82]	> 32
CC(C)NCc1cc(N(C)C)c2c(c1O)C(=O)C1=C(O)[C@]3(O)C(=O)C(C(N)=O)=C(O)[C@H](N(C)C)[C@@H]3C[C@@H]1C2 [Compound 39]	> 32
CN(C)[C@H]1C(O)=C(C(N)=O)C(=O)[C@@]2(O)C(O)=C3C(=O)c4c(O)c(CNCC(C)(C)C)cc(-c5ccoc5)c4C[C@H]3C[C@@H]12 [Compound 73]	> 32

Structure (SMILES)	MIC [µg/mL]
Cc1noc(C)c1S(=O)(=O)NCc1cc(N(C)C)c2c(c1O)C(=O)C1=C(O)[C@]3(O)C(=O)C(C(N)=O)=C(O)[C@@H](N(C)C)[C@@H]3C[C@@H]1C2 [Compound 67]	> 32
C[C@H]1c2ccc(CNC(=O)c3ccccc3)c(O)c2C(=O)C2=C(O)[C@]3(O)C(=O)C(C(N)=O)=C(O)[C@@H](N(C)C)[C@@H]3[C@@H](O)[C@@H]21 [Compound 37]	> 32
CC(C)CNCc1cc(N(C)C)c2c(c1O)C(=O)C1=C(O)[C@]3(O)C(=O)C(C(N)=O)=C(O)[C@@H](N(C)C)[C@@H]3C[C@@H]1C2 [Compound 14]	> 32
CN(C)C1C(O)=C(C(N)=O)C(=O)[C@@]2(O)C(O)=C3C(=O)c4c(O)c(CNCC(C)(C)C)cc(CNCC(C)(C)C)c4C[C@H]3C[C@@H]12 (some centres unmarked) [Compound 64]	32 (≈ 52.2 µM)
CN(C)c1cc(Cn2ccc(C=O)c2)c(O)c2c1C[C@H]1C[C@H]3[C@H](N(C)C)C(O)=C(C(N)=O)C(=O)[C@@]3(O)C(O)=C1C2=O [Compound 69]	> 32
CN(C)c1cc(CNCC(C)(C)C)c(O)c2c1C[C@H]1C[C@H]3C(N(C)C)C(O)=C(C(N)=O)C(=O)[C@@]3(O)C(O)=C1C2=O (some centres unmarked) [Compound 29]	32 (≈ 57.5 µM)
CN(C)[C@@H]1C(O)=C(C(N)=O)C(=O)[C@@]2(O)C(O)=C3C(=O)c4c(ccc(CNCC(C)(C)C)c4O)C[C@H]3C[C@@H]12 [Compound 68]	> 32
CN(C)c1cc(CNC(=O)C(Cc2ccccc2)N(C)C)c(O)c2c1C[C@H]1C[C@H]3[C@@H](N(C)C)C(O)=C(C(N)=O)C(=O)[C@@]3(O)C(O)=C1C2=O (some centres unmarked) [Compound 48]	> 32
Cc1csc(NCc2cc(N(C)C)c3c(c2O)C(=O)C2=C(O)[C@]4(O)C(=O)C(C(N)=O)=C(O)C(N(C)C)[C@@H]4C[C@@H]2C3)n1 (some centres unmarked) [Compound 62]	> 32
CN(C)c1cc(CNC(=O)OCC(Cl)(Cl)Cl)c(O)c2c1C[C@H]1C[C@H]3[C@H](N(C)C)C(O)=C(C(N)=O)C(=O)[C@@]3(O)C(O)=C1C2=O [Compound 22]	> 32
CN(C)c1cc(CNCCc2ccccc2)c(O)c2c1C[C@H]1C[C@H]3C(N(C)C)C(O)=C(C(N)=O)C(=O)[C@@]3(O)C(O)=C1C2=O (some centres unmarked) [Compound 5]	> 32
CCCCNCc1cc(N(C)C)c2c(c1O)C(=O)C1=C(O)[C@]3(O)C(=O)C(C(N)=O)=C(O)[C@H](N(C)C)[C@@H]3C[C@@H]1C2 [Compound 15]	32 (≈ 59 µM)
CN(C)c1cc(CNC(=O)OCC(C)(C)C)c(O)c2c1C[C@H]1C[C@H]3[C@H](N(C)C)C(O)=C(C(N)=O)C(=O)[C@@]3(O)C(O)=C1C2=O [Compound 8]	> 32
CN(C)c1cc(CNC(=O)Nc2ccc3c(c2)OCO3)c(O)c2c1C[C@H]1C[C@H]3[C@H](N(C)C)C(O)=C(C(N)=O)C(=O)[C@@]3(O)C(O)=C1C2=O [Compound 24]	> 32
CC(C)COC(=O)NCc1cc(N(C)C)c2c(c1O)C(=O)C1=C(O)[C@]3(O)C(=O)C(C(N)=O)=C(O)[C@H](N(C)C)[C@@H]3C[C@@H]1C2 [Compound 11]	> 32
CN(C)c1cc(CN(Cc2ccn[nH]2)Cc2ccn[nH]2)c(O)c2c1C[C@H]1C[C@H]3[C@H](N(C)C)C(O)=C(C(N)=O)C(=O)[C@@]3(O)C(O)=C1C2=O [Compound 55]	> 32
CC(NCc1cc(N(C)C)c2c(c1O)C(=O)C1=C(O)[C@]3(O)C(=O)C(C(N)=O)=C(O)C(N(C)C)[C@@H]3C[C@@H]1C2)C(F)(F)F (some centres unmarked) [Compound 74]	> 32
CN(C)c1cc(CNC(N)=S)c(O)c2c1C[C@H]1C[C@H]3[C@H](N(C)C)C(O)=C(C(N)=O)C(=O)[C@@]3(O)C(O)=C1C2=O [Compound 61]	> 32
CC(=O)c1ccc(NC(=O)NCc2cc(N(C)C)c3c(c2O)C(=O)C2=C(O)[C@]4(O)C(=O)C(C(N)=O)=C(O)[C@@H](N(C)C)[C@@H]4C[C@@H]2C3)cc1 [Compound 25]	> 32
CCOC(=O)NCc1cc(N(C)C)c2c(c1O)C(=O)C1=C(O)[C@]3(O)C(=O)C(C(N)=O)=C(O)[C@H](N(C)C)[C@@H]3C[C@@H]1C2 [Compound 13]	16 (≈ 28.6 µM)
